This note sets out measurements from PubChem BioAssay AID190 (DTP/NCI, 2004).

This test deals with AKR/Lw mice, AKR lymphoma ip, median survival T/C. As to the kind of experiment: NCI In Vivo Anticancer Drug Screen. Data for tumor model Lymphoma AKR (Transplanted) (intraperitoneal) in AKR/Lw mice. As to conditions: endpoint: median survival time, higher = longer survival. The method, then: The antitumor activity of compounds was measured in mice bearing transplantable tumors. Survival or tumor size were measured and the results are expressed as the measurement made in the treated group (T) divided by the measurement made in the vehicle treated control group (C). The tumor model used in this assay is Lymphoma AKR (Transplanted) (intraperitoneal) in AKR/Lw mice

Setting [1] is: dose: 100.0 mg/kg/injection, schedule: Q01DX001 (ip), vehicle: Klucel (hydroxypropylcellulose) (HPC).
Setting [2] is: dose: 200.0 mg/kg/injection, schedule: Q01DX001 (ip), vehicle: Klucel (hydroxypropylcellulose) (HPC).

Values joined by “and” are separate entries in the source; they are usually repeats but may differ in a detail not shown here. Equal values may be shown once. Toxic doses and inconclusive results are not listed.

In the case of `NC(=S)N/N=C/c1ccccn1`, the T/C was 122 % of control (dose: 0.12 mg/kg/injection, schedule: Q03HX032 (ip), vehicle: saline with Tween-80); 113 % of control (dose: 0.25 mg/kg/injection, schedule: Q03HX032 (ip), vehicle: saline with Tween-80); 122 % of control (dose: 0.5 mg/kg/injection, schedule: Q03HX032 (ip), vehicle: saline with Tween-80); 114 % of control (dose: 1.0 mg/kg/injection, schedule: Q03HX032 (ip), vehicle: saline with Tween-80); 96 % of control (dose: 1.25 mg/kg/injection, schedule: Q01DX009 (ip), vehicle: saline with Tween-80); 103 % of control (dose: 2.0 mg/kg/injection, schedule: Q04DX003 (ip), vehicle: saline with Tween-80). The T/C by setting is: (dose: 3.5 mg/kg/injection, schedule: Q04DX003 (ip), vehicle: saline with Tween-80) 96 % of control; (dose: 4.0 mg/kg/injection, schedule: Q04DX003 (ip), vehicle: saline with Tween-80) 116 % of control; (dose: 5.0 mg/kg/injection, schedule: Q01DX009 (ip), vehicle: saline with Tween-80) 94 % of control; (dose: 5.3 mg/kg/injection, schedule: Q04DX003 (ip), vehicle: saline with Tween-80) 106 % of control; (dose: 8.0 mg/kg/injection, schedule: Q04DX003 (ip), vehicle: saline with Tween-80) 109 % of control; (dose: 13.0 mg/kg/injection, schedule: Q04DX003 (ip), vehicle: saline with Tween-80) 112 % of control.
In the case of `CC1(C)N=C(N)N=C(N)N1c1cc(Cl)ccc1Cl`, the T/C (dose: 25.0 mg/kg/injection, schedule: Q01DX001 (ip), vehicle: saline) was 93 % of control and the T/C (dose: 50.0 mg/kg/injection, schedule: Q01DX001 (ip), vehicle: saline) is 93 % of control.
With `NCOC(=O)Cc1ccc(Br)cc1`, the T/C under setting [1] was 106 % of control; the T/C under setting [2] was 102 % of control; the T/C (dose: 400.0 mg/kg/injection, schedule: Q01DX001 (ip), vehicle: Klucel (hydroxypropylcellulose) (HPC)) is 106 % of control.
Turning to `COc1cc(N)c2ncccc2c1SC`, the T/C (dose: 200.0 mg/kg/injection, schedule: Q01DX001 (ip), vehicle: saline) is 102 % of control and the T/C (dose: 400.0 mg/kg/injection, schedule: Q01DX001 (ip), vehicle: saline) was 106 % of control.
With `S=c1nc(-c2ccccc2)c(-c2ccccc2)n[nH]1`, the T/C (dose: 100.0 mg/kg/injection, schedule: Q01DX001 (ip), vehicle: saline with Tween-80) is 106 % of control; the T/C (dose: 200.0 mg/kg/injection, schedule: Q01DX001 (ip), vehicle: saline with Tween-80) was 103 % of control; the T/C (dose: 400.0 mg/kg/injection, schedule: Q01DX001 (ip), vehicle: saline with Tween-80) was 112 % of control.
As to `CCCCCCCCCCCCCCCC(=O)OCC1OC(n2ccc(N)nc2=O)C(O)C1O` (stereo unspecified), the T/C (dose: 0.07 mg/kg/injection, schedule: Q01DX015 (ip), vehicle: saline with Tween-80) is 150 % of control; the T/C (dose: 0.15 mg/kg/injection, schedule: Q01DX015 (ip), vehicle: saline with Tween-80) was 115 % of control; the T/C (dose: 0.31 mg/kg/injection, schedule: Q01DX010 (ip), vehicle: saline with Tween-80) is 110 % of control; the T/C (dose: 0.62 mg/kg/injection, schedule: Q01DX010 (ip), vehicle: saline with Tween-80) is 110 % of control; the T/C (dose: 0.62 mg/kg/injection, schedule: Q01DX015 (ip), vehicle: saline with Tween-80) is 375 % of control; the T/C (dose: 1.25 mg/kg/injection, schedule: Q01DX015 (ip), vehicle: saline with Tween-80) was 165 % of control. Also, the T/C (dose: 2.5 mg/kg/injection, schedule: Q01DX015 (ip), vehicle: saline with Tween-80) was 225 % of control; the T/C (dose: 3.12 mg/kg/injection, schedule: Q01DX001 (ip), vehicle: saline with Tween-80) is 111 % of control; the T/C (dose: 3.75 mg/kg/injection, schedule: Q01DX005 (ip), vehicle: saline with Tween-80) was 100 % of control and 116 % of control; the T/C (dose: 3.75 mg/kg/injection, schedule: Q01DX015 (ip), vehicle: saline with Tween-80) was 153 % of control; the T/C (dose: 5.0 mg/kg/injection, schedule: Q01DX010 (ip), vehicle: saline with Tween-80) is 166 % of control and 218 % of control; the T/C (dose: 5.0 mg/kg/injection, schedule: Q01DX015 (ip), vehicle: saline with Tween-80) is 212 % of control. For the same compound, the T/C (dose: 6.25 mg/kg/injection, schedule: Q01DX001 (ip), vehicle: saline with Tween-80) is 102 % of control; the T/C (dose: 6.25 mg/kg/injection, schedule: Q14DX003 (ip), vehicle: saline with Tween-80) was 112 % of control; the T/C (dose: 7.5 mg/kg/injection, schedule: Q01DX015 (ip), vehicle: saline with Tween-80) was 200 % of control; the T/C (dose: 10.0 mg/kg/injection, schedule: Q01DX010 (ip), vehicle: saline with Tween-80) is 180 % of control and 261 % of control; the T/C (dose: 10.0 mg/kg/injection, schedule: Q01DX015 (ip), vehicle: saline with Tween-80) was 375 % of control; the T/C (dose: 12.5 mg/kg/injection, schedule: Q01DX001 (ip), vehicle: saline with Tween-80) is 108 % of control. The T/C is, setting by setting: (dose: 12.5 mg/kg/injection, schedule: Q09DX002 (ip), vehicle: saline with Tween-80) 113 % of control; (dose: 12.5 mg/kg/injection, schedule: Q14DX003 (ip), vehicle: saline with Tween-80) 155 % of control; (dose: 12.5 mg/kg/injection, schedule: Q14DX004 (ip), vehicle: saline with Tween-80) 122 % of control; (dose: 15.0 mg/kg/injection, schedule: Q01DX015 (ip), vehicle: saline with Tween-80) 250 % of control; (dose: 18.8 mg/kg/injection, schedule: Q01DX001 (ip), vehicle: saline with Tween-80) 121 % of control; (dose: 25.0 mg/kg/injection, schedule: Q09DX002 (ip), vehicle: saline with Tween-80) 121 % of control. For the same compound, the T/C reads like this: (dose: 25.0 mg/kg/injection, schedule: Q14DX003 (ip), vehicle: saline with Tween-80) 203 % of control; (dose: 30.0 mg/kg/injection, schedule: Q01DX015 (ip), vehicle: saline with Tween-80) 70 % of control; (dose: 45.0 mg/kg/injection, schedule: Q01DX005 (ip), vehicle: saline with Tween-80) 61 % of control and 110 % of control; (dose: 50.0 mg/kg/injection, schedule: Q09DX002 (ip), vehicle: saline with Tween-80) 172 % of control; (dose: 50.0 mg/kg/injection, schedule: Q14DX003 (ip), vehicle: saline with Tween-80) 183 % of control and 343 % of control; (dose: 100.0 mg/kg/injection, schedule: Q14DX003 (ip), vehicle: saline with Tween-80) 381 % of control. Also, the T/C runs as follows: (dose: 100.0 mg/kg/injection, schedule: Q14DX004 (ip), vehicle: saline with Tween-80) 182 % of control; (dose: 150.0 mg/kg/injection, schedule: Q14DX003 (ip), vehicle: saline with Tween-80) 375 % of control.
`CCOc1ccc2nc(N)sc2c1`: the T/C is, setting by setting: under setting [1], 89 % of control; under setting [2], 92 % of control.
